From patent US8980866B2, “Complex obtained from hyaluronic acid or a salt thereof and chondroitin sulphate mixtures” (Quimera Ingenieria Biomedica, S.L., priority 2011, dated 2015)

Assay: Apparent viscosity by rheometry (HAAKE RheoStress RS300, stress controlled mode, Cross model)
Type: physicochemical
Settings: for Viscosity, γ = 1: shear rate 1 s^−1, 25° C.; for Viscosity, γ = 1 / Viscosity, γ = 10 / Viscosity, γ = 100 / Viscosity, γ = 200: Milli-Q water, concentration per Table 3; for Viscosity, γ = 10: shear rate 10 s^−1, 25° C.; for Viscosity, γ = 100: shear rate 100 s^−1, 25° C.; for Viscosity, γ = 200: shear rate 200 s^−1, 25° C.
Procedure: Aqueous solutions of HA:CS mixtures (control) and atomized complexes at different weight ratios of sodium hyaluronate and chondroitin sulphate were prepared for rheological characterization. Their rheological profile was determined using a HAAKE RheoStress RS300 rheometer in stress controlled mode. A 1° cone and 35 mm diameter plate was used.
Controls and 1:1 and 1:10 complexes were reconstituted in Milli-Q water.
Based on an applied shear stress, viscosity of the samples was measured at 25° C. All samples fitted in a Cross model, which allowed to compare the results obtained.

| Viscosity, γ = 1 | Viscosity, γ = 10 | Viscosity, γ = 100 | Viscosity, γ = 200 | Viscosity loss, γ = 1 (shear rate 1 s^−1, difference in viscosity of a sample with respect its control) | Viscosity loss, γ = 10 (shear rate 10 s^−1, difference in viscosity of a sample with respect its control) | Viscosity loss, γ = 100 (shear rate 100 s^−1, difference in viscosity of a sample with respect its control) | Viscosity loss, γ = 200 (shear rate 200 s^−1, difference in viscosity of a sample with respect its control) | Substance |
| --- | --- | --- | --- | --- | --- | --- | --- | --- |
| 4884.3 mPa · s | 2307.0 mPa · s | 578.0 mPa · s | 375.0 mPa · s |  |  |  |  | sodium hyaluronate [Sample 1] |
| 3378.5 mPa · s | 1924.5 mPa · s | 522.0 mPa · s | 326.5 mPa · s | 30.8% | 16.5% | 9.6% | 12.9% | sodium hyaluronate [Sample 2] |
